According to patent US12319752B2, “Heparin-binding cationic peptide self-assembling peptide amphiphiles useful against drug-resistant bacteria” (priority 2016, dated 2025):
Residues, ends and D or L forms follow the SMILES beside them. *: point of attachment. Palmitoyl = CCCCCCCCCCCCCCCC(=O)*

Legend:
[1] = Critical micelle concentration (CMC) by Nile Red fluorescence; format: physicochemical; settings: in water, Nile Red dye
Text: First, the solvatochromic probe Nile Red was used to examine the threshold concentrations for the spontaneous aggregation induced by hydrophobic collapse of peptides. Once the supramolecular structures of PA self-assemble in water at their CMC, the Nile Red dye can be solubilized in the hydrophobic cores of the PA assemblies, displaying an enhanced fluorescent intensity. Consequently, the fluorescent intensity maxima of Nile Red were at the emission wavelength of 630 nm in the solutions of CVK-PA and ACA-PA, whereas the emission wavelength was located at 660 nm in the Bi-Cardin peptide solutions (FIG. 4A-4D). […] To estimate the CMC of each peptide, the corrected fluorescent intensity (If,corrected) of Nile Red at its emission wavelength for each peptide solution was calculated using equation: If,corrected=If,sample−If,water, where If,sample is the average of the triplicate fluorescent intensity measurements in the sample and If,water is the fluorescent intensity of Nile Red in water without the peptide. The measurements of the corrected fluorescent intensity were plotted against the log 10 values of concentration of each peptide, then the CMC value was determined at the point of intersection of the plot of log peptide concentration and fluorescent intensity of Nile Red.

MRSA = assay: Bacterial membrane disruption by TEM of ultrathin sections; format: cell-based, methicillin-resistant S. aureus (MRSA); settings: 4 h
Description: TEM was used to reveal the damage in bacterial cell envelopes caused by ACA-PA treatment. Drug-resistant bacterial strains (MRSA and MDR E. coli) were exposed to ACA-PA at concentrations below (40 μM) and above (80 μM) the CMC, and ultrathin sections of the bacterial cultures were visualized by TEM.
The ACA-PA at a concentration lower than CMC seemed to only influenced the outer bacteria membrane, but were inadequate to disrupt the inner bacteria membranes.
Bacterial membrane disruption was observed from the ultrathin sectioned sample using TEM. […] After treatment with 80 μM ACA nanorods, bacterial cell membranes were severely damaged with complete cytoplasm leakage. […] On the damaged membranes, blisters appeared to originate from the pores. This explains the reason for the different antibacterial activity of ACA-PA on Gram-negative bacteria compared to the concentration-dependent toxicity on Gram-positive bacteria. The cell envelope of Gram-positive has a cytoplasmic membrane surrounded by a thick peptidoglycan layer with lipoteichoic acid. The antibacterial ACA-PA could penetrate the Gram-positive bacterial membrane by charge and hydrophobicity, although the PA were in a dispersed, non-assembled form. However, such dispersed PA were not able to penetrate the outer membrane of Gram-negative bacteria. […]

[2] = Cytotoxicity, MTS cell viability assay; format: cell-based, human; settings: human, human dermal fibroblasts (HDF, Detroit 551, ATCC CCL-110)
Description: To evaluate the cytotoxicity of the peptides, human dermal fibroblasts (HDF) were treated for 24 h, and cell viability was determined via MTS assays (FIG. 13).
Human dermal fibroblast cells (HDF, Detroit 551, ATCC #CCL-110) were cultured in Dulbecco's modified Eagle medium (DMEM; Fisher, Pittsburgh, PA) supplemented with 10% fetal bovine serum (FBS) and 1% penicillin/streptomycin for 24 h. All cells were cultured to 90% confluence in a 37° C., humidified, 5% CO2/95% air environment. Cells at passage numbers of 4-7 were used in these experiments.
The MTS cell viability assay kit (Promega, Madison, WI, USA) was used to determine cytotoxicity of the peptides. First, HDF cells were seeded on a 96-well plate at a cell density of 5,000 cells/well (equal to 15,385 cells/cm^2), and were incubated overnight for cell adhesion. After overnight incubation, the cell medium in each well was replaced by 100 μL of cell culture medium containing various concentrations of peptides (20 μM to 100 μM). The control samples were cells incubated in cell culture medium only. After 24 h, the treatment medium in each well was removed. The cells were washed with phosphate buffered saline (PBS, pH=7.4, Fisher, PA, USA) and 100 μL of fresh cell culture medium was added to each well, followed by the addition of 20 μL of the MTS reagent. After the cells were incubated for 2.5 h, the absorbance was measured at a wavelength of 490 nm by a spectrophotometer (SpectraMax M3, Molecular Devices, Molecular Devices, Sunnyvale, CA, USA). To estimate the cell numbers in each well, a standard curve expressing the linear correlation between different cell densities and optical densities (R^2>0.95) was plotted, and the cell numbers were determined with this standard curve from the OD490 value recorded in each sample. The cell viability of each sample was calculated by: Cell viability=[(cell density per mL of treated sample)/(cell density per mL of control sample)]×100%. Data were expressed by standard error of the mean (±S.E.M.) and N=3, *p<0.05 compared with control samples.

CCCCCCCCCCCCCCCC(=O)N[C@H](C(=O)N[C@H](C(=O)N[C@H](C(=O)N[C@H](C(=O)N[C@@H](CCCCN)C(=O)N[C@@H](CCCCN)C(=O)N[C@@H](CCCCN)C(=O)N[C@@H](CCCCN)C(=O)NCC(=O)N[C@@H](C)C(=O)N[C@@H](CCCCN)C(=O)N[C@@H](CCCCN)C(=O)N[C@@H](C)C(=O)N[C@@H](CCCNC(=N)N)C(=O)N[C@@H](C)C(=O)N[C@@H](C)C(=O)N[C@@H](CCCCN)C(=O)N[C@@H](CCCCN)C(=O)N[C@@H](C)C(=O)N[C@@H](CCCNC(=N)N)C(=O)N[C@@H](C)C(=O)O)C(C)C)C(C)C)C(C)C)C(C)C [ACA-PA, C16-V4K4G(AKKARA)2 (SEQ ID NO: 7)] (Palmitoyl-VVVVKKKKGAKKARAAKKARA-OH; N-terminus and C-terminus assumed)
CMC [1]: 45.7 µM
bacterial membrane disruption (TEM) (MRSA; 40 μM): partially damaged
bacterial membrane disruption (TEM) (MRSA; 80 μM): localized disruption on the cell membrane and complete leakage of the cytoplasm
viability at 24 h, 100 µM [2]: > 50%
